Reference: ChEMBL document CHEMBL1124020, “Synthesis and antiherpetic activity of (+/-)-9-[[(Z)-2-(hydroxymethyl)cyclopropyl]methyl]guanine and related compounds” (1988)
≈ marks a conversion by molar mass, not a printed value. Calls of active or inactive are those of the source. No cut-off for these calls is given here.

Assays:
[1] = target: T1, DNA polymerase catalytic subunit (Herpes simplex virus (type 1 / strain 17)) (UniProt P04293); assay: Percentage of diphosphates (DP) in the second step of staggered assay mixture from step 1 was incubated with GMP kinase and crude extract of HSV-1 infected HeLa cells over night; assay type: functional, cell-based
T1 sequence (whole entry): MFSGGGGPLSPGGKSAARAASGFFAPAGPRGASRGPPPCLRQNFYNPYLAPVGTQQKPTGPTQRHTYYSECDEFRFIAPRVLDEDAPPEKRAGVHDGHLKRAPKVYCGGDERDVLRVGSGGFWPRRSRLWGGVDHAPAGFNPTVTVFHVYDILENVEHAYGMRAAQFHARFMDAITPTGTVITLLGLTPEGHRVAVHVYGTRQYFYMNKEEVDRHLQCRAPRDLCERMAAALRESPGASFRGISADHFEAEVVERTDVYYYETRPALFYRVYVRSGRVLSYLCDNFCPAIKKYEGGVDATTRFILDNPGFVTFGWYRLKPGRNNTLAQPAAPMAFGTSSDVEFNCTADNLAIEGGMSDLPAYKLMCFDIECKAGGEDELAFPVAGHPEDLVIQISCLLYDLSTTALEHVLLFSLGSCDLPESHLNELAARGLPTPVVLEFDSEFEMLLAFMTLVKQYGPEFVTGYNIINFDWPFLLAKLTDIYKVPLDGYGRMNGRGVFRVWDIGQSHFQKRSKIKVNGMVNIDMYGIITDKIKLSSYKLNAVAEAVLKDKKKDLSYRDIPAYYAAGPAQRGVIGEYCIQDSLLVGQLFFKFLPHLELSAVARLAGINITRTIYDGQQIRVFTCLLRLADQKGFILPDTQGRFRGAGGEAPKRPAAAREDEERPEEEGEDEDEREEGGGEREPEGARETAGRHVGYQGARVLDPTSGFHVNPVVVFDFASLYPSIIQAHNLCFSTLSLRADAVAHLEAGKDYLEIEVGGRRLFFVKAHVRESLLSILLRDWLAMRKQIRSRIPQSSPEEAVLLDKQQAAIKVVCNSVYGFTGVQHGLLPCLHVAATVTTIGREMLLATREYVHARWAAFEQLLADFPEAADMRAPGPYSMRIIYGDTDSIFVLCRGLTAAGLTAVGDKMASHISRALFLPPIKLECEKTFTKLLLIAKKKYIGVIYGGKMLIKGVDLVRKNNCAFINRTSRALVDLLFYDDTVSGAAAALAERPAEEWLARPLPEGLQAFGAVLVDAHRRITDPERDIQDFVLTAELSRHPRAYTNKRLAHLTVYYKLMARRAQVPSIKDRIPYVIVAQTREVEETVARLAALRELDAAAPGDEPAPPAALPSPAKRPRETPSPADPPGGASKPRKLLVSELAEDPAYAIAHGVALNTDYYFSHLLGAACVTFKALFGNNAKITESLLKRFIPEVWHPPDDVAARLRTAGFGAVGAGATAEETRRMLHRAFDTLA

[2] = target: T1, DNA polymerase catalytic subunit (Herpes simplex virus (type 1 / strain 17)); assay: (§1) Percentage of triphosphates (TP) in the second step of staggered assay mixture from step 1 was incubated with GMP kinase and crude extract of HSV-1 infected HeLa cells over night; assay type: functional, cell-based; conditions: Homo sapiens
[3] = species: Oryctolagus cuniculus; assay: Antiviral activity against HSV-2 cell line (concentration required to prevent viral cytopathic effect in half of primary rabbit kidney cell cultures); Not Active at 100 ug/mL; assay type: functional, organism-based
[4] = target: T1, DNA polymerase catalytic subunit (Herpes simplex virus (type 1 / strain 17)); assay: (§2) Inhibition of DNA polymerase; parameters: concentration or dose not given beside the values; conditions: concentration not given here
[5] = as §2; parameters: concentration or dose not given beside the values; conditions: concentration not given here
[6] = species: Oryctolagus cuniculus; assay: Antiviral activity against HSV-1 cell line (concentration required to prevent viral cytopathic effect in half of primary rabbit kidney cell cultures); Not Active at 100 ug/mL; assay type: functional, organism-based
[7] = target: T1, DNA polymerase catalytic subunit (Herpes simplex virus (type 1 / strain 17)); assay: Percentage of monophosphates (MP) in the second step of staggered assay mixture from step 1 was incubated with GMP kinase and crude extract of HSV-1 infected HeLa cells over night; assay type: functional, cell-based
[8] = species: Oryctolagus cuniculus; assay: (§3) Antiviral activity against HSV-2 cell line (concentration required to prevent viral cytopathic effect in half of primary rabbit kidney cell cultures); assay type: functional; conditions: read-out: ED50 (the source's name)
[9] = species: Oryctolagus cuniculus; assay: (§4) Antiviral activity against HSV-1 cell line (concentration required to prevent viral cytopathic effect in half of primary rabbit kidney cell cultures); assay type: functional; conditions: read-out: ED50 (the source's name)
[10] = tested on: HeLa; assay: as §1; assay type: functional, Homo sapiens
[11] = tested on: Thymidine kinase (Human herpesvirus 1); assay: Percentage of monophosphates (MP) formed in the first step of staggered assay compound was incubated with HSV-1 thymidine kinase for 4 hr
[12] = as §2; assay type: functional; conditions: concentration not given here
[13] = as §4; conditions: Oryctolagus cuniculus, read-out: ED50
[14] = as §3; conditions: Oryctolagus cuniculus, HSV-2, read-out: ED50

Row | Structure (SMILES) | DP [1] | TP [2] | ED50 [3] | inhibition [4] | inhibition [5] | ED50 [6] | MP [7] | EC50 [8] | EC50 [9] | TP [10] | MP [11] | NA [3] | NA [6] | inhibition [12] | EC50 [13] | EC50 [14]
1 | Nc1nc(O)c2ccn(C[C@H]3C[C@H]3CO)c2n1 | 0% | 0% | inactive | 14% | 0% | inactive | 9% |  |  |  |  |  |  |  |  | 
2 | Nc1nc(O)c2ncn(C/C=C\CO)c2n1 | 16% | 64% |  | 12% | 8% |  | 12% | 50 µg/mL (≈ 226 µM) | 12 µg/mL (≈ 54.2 µM) |  |  |  |  |  |  | 
3 | Nc1nc2c(ncn2COC(CO)CO)c(=O)[nH]1 [GANCICLOVIR] | 10% | 84% |  | 60% | 22% |  | 3% | 3 µg/mL (≈ 11.8 µM) | 3 µg/mL (≈ 11.8 µM) |  |  |  |  |  |  | 
4 | Nc1nc(O)c(N=O)c(NC[C@H]2C[C@H]2CO)n1 | 0% | 21% | inactive | 8% | 0% | inactive | 0% |  |  |  |  |  |  |  |  | 
5 | Nc1nc(O)c2ncn(C[C@H]3C[C@H]3CO)c2n1 | 0% | 76% |  | 3% | 14% |  | 0% | 12 µg/mL (≈ 51 µM) | 6 µg/mL (≈ 25.5 µM) |  |  |  |  |  |  | 
6 | Nc1nc(O)c2ncn(CC=C(CO)CO)c2n1 | 9% |  | inactive | 0% | 0% | inactive | 0% |  |  | 25% |  |  |  |  |  | 
7 | Nc1nc(O)c2nnn(C[C@H]3C[C@H]3CO)c2n1 | 41% | 55% | inactive | 0% | 1% | inactive | 2% |  |  |  |  |  |  |  |  | 
8 | Nc1nc(O)c2ncn(C/C=C/CO)c2n1 | 0% | 0% | inactive | 0% | 0% | inactive | 9% |  |  |  |  |  |  |  |  | 
9 | Nc1nc(O)c2ncn(C[C@H]3CC3(CO)CO)c2n1 | 0% | 0% | inactive | 0% | 0% |  | 0% |  | 50 µg/mL (≈ 188 µM) |  |  |  |  |  |  | 
10 | Nc1ncnc2c1ncn2C/C=C\CO | 0% | 0% |  | 0% | 3% |  | 0% |  |  |  | 0% | inactive | inactive |  |  | 
11 | Nc1nc2c(ncn2CCCCO)c(=O)[nH]1 | 10% | 17% |  | 20% | 20% |  | 0% | 12 µg/mL (≈ 53.8 µM) | 3 µg/mL (≈ 13.4 µM) |  |  |  |  |  |  | 
12 | Nc1nc(O)c2ncn(C[C@H]3C[C@@H]3CO)c2n1 | 48% | 2% | inactive | 26% | 30% | inactive | 9% |  |  |  |  |  |  |  |  | 
13 | Nc1nc(O)c2ncn(CCC(CO)CO)c2n1 [PENCICLOVIR] | 13% | 75% |  | 0% | 8% |  | 3% | 12 µg/mL (≈ 47.4 µM) | 6 µg/mL (≈ 23.7 µM) |  |  |  |  |  |  | 
14 | Nc1ncnc2c1ncn2CC1CC1(CO)CO (stereo unspecified) | 0% | 0% |  | 0% |  |  | 0% | 50 µg/mL (≈ 201 µM) | 50 µg/mL (≈ 201 µM) |  |  |  |  | 12% |  | 
15 | Nc1ncnc2c1ncn2C[C@H]1C[C@@H]1CO | 0% | 0% |  | 0% | 0% |  | 0% | 50 µg/mL (≈ 228 µM) | 50 µg/mL (≈ 228 µM) |  |  |  |  |  |  | 
16 | Nc1nc2c(ncn2COCCO)c(=O)[nH]1 [ACYCLOVIR] | 9% | 60% |  | 79% | 40% |  | 3% |  |  |  |  |  |  |  | 3 µg/mL (≈ 13.3 µM) | 3 µg/mL (≈ 13.3 µM)
17 | Nc1ncnc2c1ncn2C[C@H]1C[C@H]1CO | 0% | 0% | inactive | 5% | 0% | inactive | 0% |  |  |  |  |  |  |  |  | 
18 | Cc1cn(C[C@H]2C[C@H]2CO)c(=O)[nH]c1=O | 0% | 0% | inactive | 22% | 0% | inactive | 23% |  |  |  |  |  |  |  |  | 
19 | Nc1nc(O)c(N=O)c(NC[C@H]2C[C@@H]2CO)n1 | 0% | 0% | inactive | 9% | 5% | inactive | 9% |  |  |  |  |  |  |  |  | 
20 | Nc1nc(O)c2ncn(CC#CCO)c2n1 | 0% | 0% | inactive | 0% | 5% | inactive | 0% |  |  |  |  |  |  |  |  | 
